{"source": "patent US5023257A", "about": "“Intramuscular injection forms of gyrase inhibitors” (Bayer Aktiengesellschaft, priority 1988, dated 1991)", "test": "release of the active compound from intramuscular suspensions", "conditions": "oily suspensions, water-soluble form (hydrochlorides, lactates, mesilates and other salts), particularly with interfacially surface active materials"}
{"smiles": "O=C(O)c1cn(C2CC2)c2cc(N3CCNCC3)c(F)cc2c1=O", "note": "[ciprofloxacin]", "values": [{"measurement": "release of the active compound", "result": "very rapidly"}]}
